Experimental data reported in patent CN102743371A, “一种治疗视网膜新生血管性疾病的药物” (SPECIALTY OF OPHTHALMOLOGY RESEARCH INSTITUTE SHANDONG PROV, priority 2012, dated 2012).

Experiments:
[1] = test system: retinal neovascularization (视网膜新生血管); assay: Oxygen-induced retinopathy (OIR) mouse model; retinal flat mount with FITC-conjugated isolectin-B4, fluorescence microscopy of retinal neovascularization at P17; format: in vivo
[2] = test system: VEGF-A; assay: Western blot of VEGF-A protein in retina of OIR mice (PBS control group and FUT-175 treated group); format: in vivo, mouse; settings: retina total protein

N=C(N)c1ccc2cc(OC(=O)c3ccc(N=C(N)N)cc3)ccc2c1 [甲磺酸萘莫司他]
change in retinal neovascularization growth after injection ([1]; C3aR-/- and C5aR-/- mice, same OIR treatment): 变化并不明显 | fundus vessel growth ([1]; C57BL/6J mice, OIR (75% oxygen from P7 for 5 d), 50 mg/kg i.p. daily from P12, evaluated at P17): 血管生长趋于正常 | inhibition of RNV growth ([1]; C57BL/6J mice, OIR (75% oxygen from P7 for 5 d), 50 mg/kg i.p. daily from P12, evaluated at P17, fluorescence microscopy): 能够明显抑制RNV的生长 | VEGF-A expression change ([2]; C3aR and C5aR knockout): 无检测到VEGF-A的表达变化 | VEGF-A protein expression ([2]; C57BL/6J): 可调节VEGF-A的蛋白表达
